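96-well plates; 48 h exposure; 5 concentrations. Endpoints by linear interpolation between flanking doses. Not reached: highest tested concentration assigned. At the GI50, growth is halved.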 Calls of active or inactive are those of the source. No stated cut-off is given here; in the data, active = GI50 up to about 1.1 µM and inactive = higher.
Assays:
Test in all cases: DTP human tumour cell line panel, 48 h
MDA-MB-231 = tested on: MDA-MB-231
MDA-N = tested on: MDA-N
HCT-15 = tested on: HCT-15
EKVX = tested on: EKVX
A498 = tested on: A498
SK-MEL-28 = tested on: SK-MEL-28
LOX IMVI = tested on: LOX IMVI
OVCAR-4 = tested on: OVCAR-4
HL-60 = tested on: HL-60
HOP-92 = tested on: HOP-92
PC-3 = tested on: PC-3
CAKI-1 = tested on: CAKI-1
SN12C = tested on: SN12C
SF-268 = tested on: SF-268
RPMI-8226 = tested on: RPMI-8226
786-0 = tested on: 786-0
ACHN = tested on: ACHN
SK-OV-3 = tested on: SK-OV-3
RXF 393 = tested on: RXF 393
MOLT-4 = tested on: MOLT-4

| Compound | GI50 (MDA-MB-231) | GI50 (MDA-N) | GI50 (HCT-15) | GI50 (EKVX) | GI50 (A498) | GI50 (SK-MEL-28) | GI50 (LOX IMVI) | GI50 (OVCAR-4) | GI50 (HL-60) | GI50 (HOP-92) | GI50 (PC-3) | GI50 (CAKI-1) | GI50 (SN12C) | GI50 (SF-268) | GI50 (RPMI-8226) | GI50 (786-0) | GI50 (ACHN) | GI50 (SK-OV-3) | GI50 (RXF 393) | GI50 (MOLT-4) |
| --- | --- | --- | --- | --- | --- | --- | --- | --- | --- | --- | --- | --- | --- | --- | --- | --- | --- | --- | --- | --- |
| [N-]=[N+]=NC(c1ccccc1)(c1ccccc1)c1ccccc1 | 16.5 µM (inactive) | 16.4 µM (inactive) | 18.1 µM | 14.2 µM (inactive) | 17.3 µM (inactive) | 18.4 µM (inactive) | 19.1 µM (inactive) | 20.3 µM (inactive) | 17.2 µM (inactive) | 17.1 µM (inactive) | 15.2 µM (inactive) | 17.4 µM (inactive) | 16.7 µM (inactive) | 18.5 µM (inactive) | 19.3 µM (inactive) | 17.1 µM (inactive) | 15.7 µM (inactive) | 29.4 µM (inactive) | 15.7 µM (inactive) | 16.1 µM (inactive) |
| C/C(=N\NC(=O)c1ccncc1)c1ccccc1Cl | > 100 µM (inactive) | > 100 µM (inactive) | > 100 µM | > 100 µM (inactive) | > 100 µM (inactive) | > 100 µM (inactive) | > 100 µM (inactive) | > 100 µM (inactive) | > 100 µM (inactive) | > 100 µM (inactive) | > 100 µM (inactive) | > 100 µM (inactive) | > 100 µM (inactive) | > 100 µM (inactive) | 79.6 µM (inactive) | > 100 µM (inactive) | > 100 µM (inactive) | > 100 µM (inactive) | > 100 µM (inactive) | > 100 µM (inactive) |
| CC(C)(C)c1ccc(C(C)(C)C)c(N2C(=O)[C@@H]3[C@@H]4C=C[C@@H](C4)[C@]3(C)C2=O)c1 | 28.4 µM (inactive) | 14 µM (inactive) | 18.6 µM | 47.3 µM (inactive) | 16.5 µM (inactive) | 31.3 µM (inactive) | 13.9 µM (inactive) | 13.6 µM (inactive) | 16.4 µM (inactive) | 0.869 µM (active) | 20.2 µM (inactive) | 22.2 µM (inactive) | 20.1 µM (inactive) | 27.9 µM (inactive) | 14.7 µM (inactive) | 17.4 µM (inactive) | 21.5 µM (inactive) | > 100 µM (inactive) | 15.5 µM (inactive) | 14.9 µM (inactive) |
| CC(C)(C)N/N=C(/Cc1nc2c3c(ccc2nc1O)C(=O)c1ccccc1C3=O)C(=O)NC1=C(Cl)C(=O)c2ccccc2C1=O | 1.98 µM (inactive) | 15.1 µM (inactive) | 4.26 µM | 61.2 µM (inactive) | 88.9 µM (inactive) | > 100 µM (inactive) | 6.17 µM (inactive) | 5.16 µM (inactive) | 10.3 µM (inactive) | 31.6 µM (inactive) | 7.71 µM (inactive) | 1.06 µM (active) | 17 µM (inactive) | 6.97 µM (inactive) | 78.9 µM (inactive) | 33.2 µM (inactive) | 5.37 µM (inactive) | 7.16 µM (inactive) | 6.18 µM (inactive) | 23.2 µM (inactive) |
| COc1cc2c(NCCCCCCO[N+](=O)[O-])ncnc2c(OC)c1OC | 14.2 µM (inactive) | 20.6 µM (inactive) | 24 µM | 22.5 µM (inactive) | 18.1 µM (inactive) | 45.1 µM (inactive) | 20.2 µM (inactive) | 50.4 µM (inactive) | 23.9 µM (inactive) | 14.6 µM (inactive) | 20.7 µM (inactive) | 19.1 µM (inactive) | 28.7 µM (inactive) | 25.5 µM (inactive) | 10.2 µM (inactive) | 26 µM (inactive) | 32.9 µM (inactive) | 49.3 µM (inactive) | 17.9 µM (inactive) | 16.5 µM (inactive) |
| O=C(OCc1ccccc1)N1CCCc2c(n(S(=O)(=O)c3ccccc3)c3ccccc23)C1 | > 100 µM (inactive) | > 100 µM (inactive) | > 100 µM | > 100 µM (inactive) | > 100 µM (inactive) | > 100 µM (inactive) | > 100 µM (inactive) | > 100 µM (inactive) | > 100 µM (inactive) | > 100 µM (inactive) | > 100 µM (inactive) | > 100 µM (inactive) | > 100 µM (inactive) | > 100 µM (inactive) | > 100 µM (inactive) | > 100 µM (inactive) | > 100 µM (inactive) | > 100 µM (inactive) | 53.8 µM (inactive) | > 100 µM (inactive) |
| NC1=Nc2cc(C(F)(F)F)ccc2Sc2nc3ccccc3n21 | 38.1 µM (inactive) | 5.53 µM (inactive) | > 100 µM | 13.8 µM (inactive) | > 45.5 µM (inactive) | > 100 µM (inactive) | 4.85 µM (inactive) | 17.7 µM (inactive) | 3.15 µM (inactive) | 7.6 µM (inactive) | 10.3 µM (inactive) | 84.9 µM (inactive) | 57.5 µM (inactive) | 16.6 µM (inactive) | 6.25 µM (inactive) | 11.6 µM (inactive) | > 78.9 µM (inactive) | 37.5 µM (inactive) | > 53.5 µM (inactive) | 4.24 µM (inactive) |
| CCOC(=O)C1=NNC(C(=O)c2ccccc2)C1c1ccccc1 (stereo not given) | 3.94 µM (inactive) | 1.85 µM (inactive) | 2.15 µM | 8.95 µM (inactive) | 25.1 µM (inactive) | 1.91 µM (inactive) | 2.32 µM (inactive) | 7.4 µM (inactive) | 0.644 µM (active) | 2.07 µM (inactive) | 10.4 µM (inactive) | 1.83 µM (inactive) | 2.08 µM (inactive) | 5 µM (inactive) | 3.85 µM (inactive) | 2.11 µM (inactive) | 1.85 µM (inactive) | 18.8 µM (inactive) | 1.7 µM (inactive) | 3.54 µM (inactive) |
| CC1CC[C@@]2(OC1)OC1C[C@H]3[C@@H]4CC[C@H]5CC(OC6OC(CO)C(OC7OC(CO)C(O)C(O)C7O)C(O)C6O)CCC5(C)[C@H]4CCC3(C)C1[C@@H]2C (stereo not given in full) | 9.1 µM (inactive) | 8.2 µM (inactive) | 12.6 µM | 5.33 µM (inactive) | 8.65 µM (inactive) | 9.2 µM (inactive) | 4.58 µM (inactive) | 8.81 µM (inactive) | 8.87 µM (inactive) | 8.57 µM (inactive) | 7.45 µM (inactive) | 8.49 µM (inactive) | 7.35 µM (inactive) | 9.57 µM (inactive) | 13.7 µM (inactive) | 8.26 µM (inactive) | 7.53 µM (inactive) | 10.1 µM (inactive) | 10.7 µM (inactive) | 9.14 µM (inactive) |
| O=C(O)CSc1nnc(CCCCCCCCc2nnc(SCC(=O)O)o2)o1 | > 100 µM (inactive) | > 100 µM (inactive) | > 100 µM | > 100 µM (inactive) | > 100 µM (inactive) | > 100 µM (inactive) | > 100 µM (inactive) | > 100 µM (inactive) | > 100 µM (inactive) | 79.8 µM (inactive) | > 100 µM (inactive) | > 100 µM (inactive) | > 100 µM (inactive) | > 100 µM (inactive) | > 100 µM (inactive) | > 100 µM (inactive) | > 100 µM (inactive) | > 100 µM (inactive) | 38.5 µM (inactive) | > 100 µM (inactive) |
| COc1cc(/C=C2/SC(c3ccccc3)N(c3ccc(Cl)cc3)C2=O)cc(OC)c1OC (stereo not given) | > 100 µM (inactive) | 2.37 µM (inactive) | 8.13 µM | > 52.6 µM (inactive) | > 80 µM (inactive) | > 56.6 µM (inactive) | 50.8 µM (inactive) | 7.98 µM (inactive) | 10.1 µM (inactive) | > 100 µM (inactive) | 28.6 µM (inactive) | > 51.2 µM (inactive) | > 32 µM (inactive) | 19.5 µM (inactive) | 2.99 µM (inactive) | > 100 µM (inactive) | 4.35 µM (inactive) | 9.48 µM (inactive) | 49.7 µM (inactive) | 15.7 µM (inactive) |
| O=C1c2ccccc2C2CNC1(O)c1ccccc12 (stereo not given) | > 100 µM (inactive) | > 100 µM (inactive) | > 100 µM | > 100 µM (inactive) | > 100 µM (inactive) | > 100 µM (inactive) | > 100 µM (inactive) | > 100 µM (inactive) | > 100 µM (inactive) | > 100 µM (inactive) | > 100 µM (inactive) | > 100 µM (inactive) | > 100 µM (inactive) | > 100 µM (inactive) | > 100 µM (inactive) | > 100 µM (inactive) | > 100 µM (inactive) | > 100 µM (inactive) | > 100 µM (inactive) | > 100 µM (inactive) |
| Cn1cc(S(=O)(=O)NC(=O)Nc2ccc(Cl)cc2)c2ccccc21 | > 100 µM (inactive) | 27.4 µM (inactive) | 4.5 µM | > 100 µM (inactive) | > 100 µM (inactive) | > 100 µM (inactive) | 93.1 µM (inactive) | > 100 µM (inactive) | > 100 µM (inactive) | > 100 µM (inactive) | 43.9 µM (inactive) | 15.5 µM (inactive) | > 100 µM (inactive) | > 100 µM (inactive) | > 100 µM (inactive) | > 100 µM (inactive) | 25.4 µM (inactive) | 55.5 µM (inactive) | > 100 µM (inactive) | > 100 µM (inactive) |
| CCCCCCCCCCCCCCCCCC(=O)OCC(COC1OC(CS(=O)(=O)O)C(O)C(O)C1O)OC(=O)CCCCCCCCCCCCCCCCC (stereo not given) | > 100 µM (inactive) | > 100 µM (inactive) | > 100 µM | > 100 µM (inactive) | > 100 µM (inactive) | > 100 µM (inactive) | > 100 µM (inactive) | > 100 µM (inactive) | > 100 µM (inactive) | 45.2 µM (inactive) | > 100 µM (inactive) | > 100 µM (inactive) | > 100 µM (inactive) | > 100 µM (inactive) | > 100 µM (inactive) | > 100 µM (inactive) | > 100 µM (inactive) | > 100 µM (inactive) | > 100 µM (inactive) | > 100 µM (inactive) |

From ChEMBL document CHEMBL1201862, “PubChem BioAssay data set” (2004)
